Assay results taken from US7728014B2, “Heteroaromatic compounds having sphingosine-1-phosphate (S1P) receptor agonist biological activity” (Allergan, Inc., priority 2006, dated 2010).

How the values were obtained:
[1] = molecular target: T1, human S1P3 receptor (Homo sapiens, UniProt Q99500); assay: FLIPR Ca+2 response assay, activation of human S1P3 receptor in T24 cells; type: cell-based; conditions: for EC50: T24 cells stably expressing human S1P3, tested 0.61 nM to 10,000 nM; for Emax at 10 µM: T-24, receptor activity at highest dose (10 μM) relative to that induced by 5 nM sphingosine-1-phosphate, read-out: S1P3 (% efficacy)
T1 construct: expressed in transfected cells
Description: Compounds were also assessed for their ability to activate or block activation of the human S1P3 receptor in T24 cells stably expressing the human S1P3 receptor. Ten thousand cells/well were plated into 384-well poly-D-lysine coated plates one day prior to use. The growth media for the S1P3 receptor expressing cell line was McCoy's 5A medium supplemented with 10% charcoal-treated fetal bovine serum (FBS), 1% antibiotic-antimycotic and 400 μg/ml geneticin. On the day of the experiment, the cells were washed twice with Hank's Balanced Salt Solution supplemented with 20 mM HEPES (HBSS/Hepes buffer). The cells were then dye loaded with 2 uM Fluo-4 diluted in the HBSS/Hepes buffer with 1.25 mM Probenecid and incubated at 37° C. for 40 minutes. Extracellular dye was removed by washing the cell plates four times prior to placing the plates in the FLIPR (Fluorometric Imaging Plate Reader, Molecular Devices). Ligands were diluted in HBSS/Hepes buffer and prepared in 384-well microplates. The positive control, Sphingosine-1-Phosphate (S1P), was diluted in HBSS/Hepes buffer with 4 mg/ml fatty acid free bovine serum albumin. The FLIPR transferred 12.5 μl from the ligand microplate to the cell plate and took fluorescent measurements for 75 seconds, taking readings every second, and then for 2.5 minutes, taking readings every 10 seconds. Drugs were tested over the concentration range of 0.61 nM to 10,000 nM. Data for Ca^+2 responses were obtained in arbitrary fluorescence units and not translated into Ca^+2 concentrations. IC50 values were determined through a […] regression analysis using the Levenburg Marquardt algorithm. In Table 1, NA is defined as “Not Active,” ND is defined as “Not Determined,” % efficacy is defined as “percent of receptor activity induced by a test compound at the highest dose test (10 μM) relative to the receptor activity induced by 5 nM sphingosine-1-phosphate,” and % inhibition is defined as “percent of receptor activity induced by 5 nM sphingosine-1-phosphate that is inhibited by a test compound at the highest dose tested (10 μM).”

[2] = system: perfused porcine eyes; conditions: IOVS 45, 2263, 2004; cited from earlier work

T1 sequence (Q99500 whole entry): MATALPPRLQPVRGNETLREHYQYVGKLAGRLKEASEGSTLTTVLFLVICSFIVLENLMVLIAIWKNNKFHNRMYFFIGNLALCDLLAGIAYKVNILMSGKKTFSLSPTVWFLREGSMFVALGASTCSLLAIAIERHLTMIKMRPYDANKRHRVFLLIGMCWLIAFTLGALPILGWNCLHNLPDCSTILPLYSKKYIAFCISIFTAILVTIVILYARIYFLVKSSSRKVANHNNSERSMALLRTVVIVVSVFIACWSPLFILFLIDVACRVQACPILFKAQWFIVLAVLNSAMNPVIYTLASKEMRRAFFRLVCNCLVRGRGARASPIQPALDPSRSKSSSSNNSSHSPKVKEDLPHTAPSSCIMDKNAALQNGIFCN

SMILES	EC50 ([1]; NA = Not Active) [nM]	Emax at 10 µM [1] [%]	EC50 [1] [nM]	decrease of outflow facility [2] [%]
CCOC(=O)c1nnc(-c2ccccc2)c(-c2ccc(C(F)(F)F)cc2)n1 [Example 19, Ethyl 5-(4-Trifluoromethylphenyl)-6-phenyl-1,2,4-triazine-3-carboxylatate]		34		
CCOC(=O)c1ccc(-c2ccccc2)c(-c2ccccc2)n1 [Example 21, Ethyl 5,6-diphenylpyridine-2-carboxylate]	1800	80		
CCOC(=O)c1ccc(-c2ccc(C)cc2)c(-c2ccccc2)n1 [Example 22, Ethyl 6-Phenyl-5-p-tolyl-pyridine-2-carboxylate]	740	32		
CCCc1ccc(-c2ccc(C(=O)OCC)nc2-c2ccccc2)cc1 [Example 24, Ethyl 6-Phenyl-5-(4-propylphenyl)-pyridine-2-carboxylate]	3100	50		
COC(=O)c1ccc(-c2ccc(C)cc2)c(-c2ccccc2)n1 [Example 31, Methyl 6-Phenyl-5-p-tolyl-pyridine-2-carboxylate]	580	73		
CCc1ccc(-c2ccc(C(=O)OC)nc2-c2ccccc2)cc1 [Example 32, Methyl 5-(4-Ethylphenyl)-6-phenyl-pyridine-2-carboxylate]	570	88		
CCCc1ccc(-c2ccc(C(=O)OC)nc2-c2ccccc2)cc1 [Example 33, Methyl 6-Phenyl-5-(4-propylphenyl)-pyridine-2-carboxylate]	2900	81		
CCC(=O)c1ccc(-c2ccccc2)c(-c2ccc(C(F)(F)F)cc2)n1 [Example 79, 1-[5-Phenyl-6-(4-trifluoromethyl-phenyl)-pyridin-2-yl]-propan-1-one]	2600	30		
CCc1ccc(-c2nnc(C(=O)OC)nc2-c2ccccc2)cc1 [Example 89, Methyl 6-(4-Ethyl-phenyl)-5-phenyl-1,2,4-triazine-3-carboxylate]	2300	64		
COC(=O)c1cnc(-c2ccccc2)c(-c2ccccc2)n1 [Example 93, Methyl 5,6-Diphenyl-pyrazine-2-carboxylate]	4100	62		
CCCCCCCCCCCCC/C=C/[C@@H](O)[C@@H](N)COP(=O)(O)O [Example S1P, Sphingosine-1-Phosphate]				> 30

Now from value to compound, other results behind:

EC50 ([1]; NA = Not Active) [nM]	Emax at 10 µM [1] [%]	EC50 [1] [nM]	SMILES	decrease of outflow facility [2] [%]
1600	57		CCOC(=O)c1nnc(-c2ccc(CC)cc2)c(-c2ccccc2)n1 [Example 13, Ethyl 6-(4-Ethylphenyl)-5-phenyl-1,2,4-triazine-3-carboxylate]	
2900			CCOC(=O)c1nnc(-c2ccc(C)cc2)c(-c2ccccc2)n1 [Example 17, Ethyl 5-Phenyl-6-p-tolyl-1,2,4-triazine-3-carboxylate]	
1400	82		CCOC(=O)c1ccc(-c2ccc(CC)cc2)c(-c2ccccc2)n1 [Example 23, Ethyl 5-(4-Ethyl-phenyl)-6-phenyl-pyridine-2-carboxylate]	
3700	46		CCOC(=O)c1ccc(-c2ccccc2)c(-c2ccc(C)cc2)n1 [Example 27, Ethyl 5-Phenyl-6-p-tolyl-pyridine-2-carboxylate]	
2900	48		CCOC(=O)c1ccc(-c2ccccc2)c(-c2ccc(CC)cc2)n1 [Example 28, Ethyl 6-(4-Ethylphenyl)-5-phenyl-pyridine-2-carboxylate]	
700	84		COC(=O)c1ccc(-c2ccccc2)c(-c2ccccc2)n1 [Example 30, Methyl 5,6-diphenylpyridine-2-carboxylate]	
2300	91		COC(=O)c1ccc(-c2ccccc2)c(-c2ccc(C(F)(F)F)cc2)n1 [Example 35, Methyl 5-Phenyl-6-(4-trifluoromethylphenyl)-pyridine-2-carboxylate]	
	90	340	CCc1ccc(-c2ccc(C(=O)OC)nc2-c2ccncc2)cc1 [Example 52, Methyl 5-(4-Ethylphenyl)-6-(pyridin-4-yl)pyridine-2-carboxylate]	
> 10000	51		CC(=O)c1ccc(-c2ccccc2)c(-c2ccccc2)n1 [Example 75, 1-(5,6-Diphenyl-pyridin-2-yl)-ethanone]	
3400	41		CCC(=O)c1ccc(-c2ccccc2)c(-c2ccccc2)n1 [Example 76, 1-(5,6-Diphenyl-pyridin-2-yl)-propan-1-one]	
2400	59		COCc1ccc(-c2ccccc2)c(-c2ccccc2)n1 [Example 92, 6-Methoxymethyl-2,3-diphenyl-pyridine]	
2300	61		CC(=O)c1cnc(-c2ccccc2)c(-c2ccccc2)n1 [Example 94, 1-(5,6-Diphenyl-pyrazin-2-yl)-ethanone]	
4400	95		CCC(=O)c1cnc(-c2ccccc2)c(-c2ccccc2)n1 [Example 95, 1-(5,6-Diphenyl-pyrazin-2-yl)-propan-1-one]	
